The structures appear in SMILES notation. In brackets after ≈: the same amount, converted by molar mass.

The values that follow come from patent publication US10858357B2, “Water-soluble myosin 2 inhibitors for the treatment of neurological, neuropathic or psychiatric diseases” (PARIS SCIENCES ET LETTRES-QUARTIER LATIN, priority 2016, dated 2020).

The conditions of data set [1]: cited from earlier work; for solubility: Képiró et al., Angew. Chem. Int. Ed., 2014.
Data set [2] deals with cannabinoid-induced working memory loss. As to the kind of experiment: Novel object recognition (NOR) test with CP55,940. It counts as in vivo. The conditions noted are these: CP55,940 1 hour prior to familiarization, no neurelaxin-A. How it is done:
In this experiment, a novel object recognition (NOR) test was performed.
In this test animals are presented to two objects and it will explore them for a while. After, one of the objects is changed for a new and different one. Under normal circumstances animals will be attracted to the novel object and will spend more time exploring it, by comparison to the older and already known object. Animals with memory deficit will explore both objects equally.
The synthetic cannabinoid CB1R agonist CP55,940 is administrated 1 hour prior to the familiarization step. Thirty minutes prior to the familiarization animals are either treated or not with neurelaxin-A.

Data set [3] has as its system EGFP-α-tubulin H2B-mCherry HeLa Kyoto cells. As to the kind of experiment: HeLa cell toxicity, 12-hour confocal time-lapse imaging. Particulars: time-lapse imaging, concentration not given. The class given is cell-based, human. As for the experimental part:
For phototoxicity experiments, confocal time-lapse imaging of HeLa Kyoto H2B-mCherry eGFP-α-tubulin cells for 12 hours was performed in DMEM further supplemented with 25 mM HEPES in order to achieve CO2 independent media. Confocal time-lapse imaging was performed on a Zeiss LSM 710 using a Plan Apo 20×/0.8 objective, with the following parameters: 2% laser intensity at λexc=488 nm, 3% laser intensity at λexc=543 nm, 1.2× zoom, average 4, line step 1, 1000×1000 pixels, 0.35 μm pixel size, 0.65 μs dwell time, 3 slice/z-stack with 7 μm between slices at every 10 minutes.
To test the cytotoxicity of neurelaxin-A in live-cell fluorescence microscopy, time-lapse EGFP-α-tubulin H2B-mCherry labeled HeLa Kyoto cells were imaged in a confocal microscope (FIG. 4a).
Cells were treated with 50 μM neurelaxin-A and imaged for 12 hours applying 3 z-sections every 10 minutes.

For data set [4], the system named is myosin 2. Particulars: Lucas-Lopez et al., 2008; cited from earlier work.

As for `Cc1ccc2c(c1)C(=O)C1(O)CCN(c3ccc([N+](=O)[O-])cc3)C1=N2` (stereo not drawn) [Para-nitroblebbistatin], the solubility entry in data set [1] is “around 20 μM”.
`CCCCCCC(C)(C)c1ccc([C@@H]2C[C@H](O)CC[C@H]2CCCO)c(O)c1` [CP55,940, reference compound]: the “NOR test: exploration of familiar and novel object” value in data set [2] is reported as “spend similar time exploring both objects”.
With `Cc1ccc2c(c1)C(=O)C1(O)CCN(c3ccccc3)C1=N2` (stereo not drawn) [Blebbistatin], the solubility result in data set [1] was “around 20 μM”. Besides, the “water solubility: concentration above which slow precipitation is observed” value in data set [1] (background statement) is 10 µM (≈ 2.92 µg/mL). Moreover, in data set [3], the “cytotoxic phenotype in HeLa Kyoto cells (positive control)” value is “cells round up from the surface and eventually die”.
Take `O=C1c2ccc([N+](=O)[O-])cc2N=C2N(c3ccccc3)CCC12O` (stereo not drawn) [Nitroblebbistatin]: the IC50 in data set [4] is 27.5 µM.

For orientation: IC50 means the concentration that inhibits the measured activity by half.
